Source: patent publication US9944989B2, “Micrornas as new therapeutic targets for the prevention and/or treatment of retinopathy” (RUSH UNIVERSITY MEDICAL CENTER, priority 2010, dated 2018)

Tests used:
NF-κB p65 = assay: NF-κB activation by immunofluorescence of p65 subunit in rat RECs; format: cell-based; settings: IL-1β or TNFα 10 ng/ml, 30 minutes after treatment
Description: (§1) Rat REC culture and treatment with proinflammatory factors. Rat RECs—the Transgenic-inner Blood-Retinal Barrier (Tr-iBRB) cells were kindly provided by Drs. Tetsuya Terasaki, Tohoku University, and Ken-ichi Hosoya, University of Toyama, Japan. The Tr-iBRB cells were derived from RECs of transgenic rats harboring the temperature-sensitive SV40 large T-antigen (tsA58Tg rats). At 33° C., they are immortalized and proliferate because of the expression of large T-antigen. At 37° C., they stop proliferation due to loss of large T-antigen and differentiate into authentic retinal ECs, which have spindle fiber shapes, with typical endothelial and REC-specific markers and endothelial properties and REC-specific functions. iTr-iBRB cells were expanded at 33° C. on collagen-coated (50 μg/ml) plates in complete EC culture medium (DMEM with 70 mg/L benzylpenicillin potassium, 100 mg/L streptomycin sulfate, 10% heat-inactivated FBS and endothelial-cell growth factor (ECGF) (1:100, Sigma). Glucose concentration in the medium was 5.5 mM. Approximately 100,000 cells/60 mm plate were grown in complete medium at 37° C. for 48 hours. Cells were serum starved in DMEM+0.2% FBS for 16 hours before treatment of IL-1β (10 ng/ml, Sigma), TNFα (10 ng/ml, Sigma), or NF-κB inhibitor, Bay11-7082 (3 μM. Calbiochem) for 4 or 24 hours. Subsequently, the cells were harvested for total RNA, protein lysate preparation, or immunofluorescence.
Detection of NF-κB activation by immunofluorescence of p65 subunit. 30 min following cytokine treatment, cells were fixed with 4% paraformaldehyde for 20 min. After blocking with 10% normal donkey serum (NDS) in PBS for 1 hour at room temperature, cells were incubated with anti-p65 antibody (Santa Cruz) at 4° C. overnight. Cells were incubated in Alexa fluor-conjugated secondary antibody (1:400) in 3% NDS. Nuclei of the cells were labeled with Hoechst nuclear dye (1:500). Subsequently, the cells were observed under an Axioplan2 fluorescent microscope (Zeiss).

[1] = test system: human retinal endothelial cells (HRECs); assay: Transendothelial electrical resistance (TEER) assay in HRECs; format: cell-based
Description: Transendothelial electrical resistance assay: ECs are grown as a monolayer on small gold electrodes. The transendothelial electrical resistance, which reflects endothelial barrier function and permeability, is measured using the Electric Cell-Substrate Impedance Sensor (ECIS) system.
Transendothelial electrical resistance (TEER) assay. HRECs were plated and grew as a monolayer on fibronectin-coated Electric Cell-Substrate Impedance Sensor (ECIS) electrode arrays (Applied Biophysics). 24 hours after transfection with miR-146a mimics, or negative control oligo duplex with scrambled sequences, the cells were treated with IL-1β (10 ng/ml). TEER was recorded for 20 hours before and 24 hours after addition of IL-1β using the ECIS system (Applied Biophysics) (Qiao et al., 2003, 2006; Lum et al., 2003, 2001). When Bay11-7082 was used, HRECs was incubated with Bay11-7082 ([…]) (Sigma) for 30 minutes prior to IL-1β treatment.

NF-κB [2] = assay: miR-146a expression (qRT-PCR) in rat RECs (TR-iBRB2) treated with IL-1β or TNFα, with or without Bay11-7082; format: cell-based; settings: for miR-146a expression: rat RECs (TR-iBRB2), 10 ng/ml, four hours and 24 hours after treatment
Description: In diabetic retinas, hyperglycemia-induced increased production of ROS and proinflammatory cytokines work in concert to activate NF-κB in RECs. Both IL-1β and TNF-α are shown to activate NF-κB in RECs. Upregulation of miR-146a is a result of NF-κB activation. Rat RECs (the TR-iBRB2 cells) were treated with IL-1β (10 ng/ml) and TNF-α (10 ng/ml). […] The extent of upregulation of miR-146a was further increased from 4-hour to 24-hour treatments. […] It is noteworthy that there is a moderate, but significant increased expression of miR-146a by IL-1β in the presence of Bay11-7082, compared to non-treated negative controls.
Quantitative (q)RT-PCR. qRT-PCR analysis of miRNAs was performed using TaqMan microRNA Assays according to the manufacturer's protocol (Applied Biosystems). Approximately 8 ng of total RNA was used for each reaction. snRNA U6 was used for normalization control. qRT-PCR analysis on mRNAs of IRAK1, TRAF6, ICAM-1, and MCP-1 was performed using the QuantiTect Primer Assay with QuantiFast SYBR Green RT-PCR Kit (Qiagen, Valencia, Calif.) ˜10 ng total RNA was used in each reaction. 18S rRNA was amplified as normalization control. All data are expressed as mean±SEM. Student's t-test was used to determine significance (p<0.05).
as §1

miRNAs in the vitreous = assay: miRNA expression profiling (TaqMan rodent miRNA microarray) of the vitreous of STZ-induced diabetic and normal control rats; parameters: species or system rat; settings: two weeks after the onset of diabetes, average delta Ct
Description: Isolation of vitreous RNA from STZ-induced diabetic and normal control rats: 2 weeks after STZ-induced diabetes, 3 diabetic and 3 normal control rats were sacrificed and their eyeballs harvested. In cold PBS, the eyeballs were dissected to collect the vitreous bodies, the retinas and the lens, total RNA was prepared using the mirVana miRNA isolation kit (Ambion). The yield of total RNA from vitreous body was ˜764 ng and 1125 ng total RNA/vitreous of control and diabetic rats, respectively. […]
miRNA microarray assays and data analyses. […] Three independent sets of miRNA profiling were performed for each experimental condition Amplification data were created by the SDS2.3 program (Applied Biosystems) and further analyzed using RQ Manager software (Applied Biosystems) and StatMiner v. […] There were three replicate assays for each miRNA on the array. miRNAs with Ct<40 in at least two out of the three replicates were accepted as “detected”. […] Normalized expression level of each miRNA was calculated as DCt or ΔCt=Ct(miRNA)-Ct(snRNA U6). The average DCt from three microarray assays was calculated as the relative expression level of each miRNA. The differential expression of each miRNA from samples of diabetic rats and normal controls was calculated as: DDCt or Δ(ΔCt)=Ave DCt (diabetic)—Ave DCt (control). Fold of change was calculated as 2^−Δ(ΔCt). […]

NF-κB [3] = assay: Thrombin-induced miR-146a/b expression (qRT-PCR) in HRECs, with or without Bay11-7082; format: cell-based, human
Text: miR-146 is a NF-κB-responsive miRNA, and can be induced by IL-1R/TLR mediated NF-κB activation. GPCR-mediated NF-κB activation also induces the expression of miR-146.
Upregulation of miR-146a/b by thrombin treatment is a result of NF-κB activation.
(§2) Cell culture and treatment. Primary Human Retinal Endothelial Cells (HRECs) (Passage 3-6) and HEK293 cells were purchased from Applied Cell Biology Res Institute (Kirkland, Wash.) and American Type Culture Collection (ATCC), respectively. HRECs were maintained in EGM2-MV media with 5% of FBS (Lonza) in flasks coated with attachment factor (Invitrogen) or plates coated with fibronectin (Sigma). For thrombin treatment, HRECs were serum starved in EGM2-MV media with 1% FBS overnight, and then treated with thrombin (5 U/ml) (Sigma. Cat. T4393) for 5-8 hours, followed by RNA harvesting, leukocyte adhesion and other assays; for IL-1β treatment, after overnight serum starvation, HRECs was incubated with 10 ng/ml IL-1β (Sigma) for 4 hours. When NF-κB specific inhibitor Bay11-7082 was used, HRECs was incubated with Bay11-7082 (3 μM) (Sigma) for 30 minutes prior to treatment with either thrombin or IL-1β.
(§3) RNA preparation and quantitative RT-PCR. Total RNA was prepared using miRVana miRNA isolation kit (Ambion) (Kovacs et al., 2011). qRT-PCR of miRNAs was performed using TaqMan microRNA Assays (Applied Biosystems), with snRNA U6 as normalization control. qRT-PCR of mRNAs of was performed using QuantiTect Primer Assays and QuantiFast SYBR Green RT-PCR Kit (Qiagen), with 18s rRNA as normalization control. Two tailed t test was used to determine significance of differences.

HRECs = assay: Leukocyte adhesion to HRECs; format: cell-based, human; settings: scrambled control-treated HRECs, thrombin treatment
Description: Leukocyte adhesion to HRECs. Leukocyte adhesion assays were performed (Huang et al., 2007; O'Donnell, 2011) with minor modifications. Briefly, blood from healthy human volunteers was collected according to a approved IRB protocol to isolate leukocytes. Leukocytes were labeled with 5 μM Calcein/acetomethoxy (AM) (Invitrogen). HRECs were transfected with miR-146a mimics or negative control oligo duplex with scrambled sequences for 48 hours before thrombin treatment (5 U/ml). Eight hours after thrombin treatment, 10^5 calcein-labeled leukocytes were added onto the HREC monolayer and incubated for 2 hours at 37 C. Subsequently, the cells were gently rinsed with PBS to wash off leukocytes unattached to HRECs; the number of Calcein-AM labeled neutrophils attached to HRECs were counted by fluorescence microscopy. In addition, the fluorescence from the adherent leukocytes on HRECs was measured with a Cytofluor plate reader (PreSeptive Biosystems).

NF-κB activation = assay: Thrombin-induced NF-κB downstream genes (ICAM-1, VCAM-1, MCP1) by qRT-PCR in HRECs; format: cell-based, human; settings: thrombin treatment
Description: Thrombin-dependent NF-κB activation is mediated by the CARD10-Bc110-MALT1 signalosome. If miR-146 targets CARD10, one of the key components of the signalosome of the GPCR-mediated NF-κB activation pathway, miR-146 should have an inhibitory effect on GPCR-mediated NF-κB activation in HRECs. HRECs were transfected with miR-146a mimic or negative control oligos with scrambled sequences; 24 hour after the transfection, the cells were treated with thrombin.
To determine whether miR-146's inhibition on thrombin-mediated NF-κB activation is mediated by its repression on CARD10, HRECs were transfected with human CARD10-expressing constructs (Genecopoeia) before miR-146a mimic transfection and thrombin treatment.
as §2
miR-146a mimic, anti-miR-146a and plasmid transfection. […]
as §3, with “Two tailed t test was used to determine significance of differences.” left out

[4] = Bay11-7082 3 μM for 30 minutes prior to thrombin
[5] = HRECs treated with scrambled oligo

## IL-1β: proinflammatory cytokine used at 10 ng/ml to activate NF-κB
NF-κB p65
  NF-κB activation (nuclear translocation of p65): activated NF-κb
[1]; IL-1β treatment
  TEER: significant decrease
NF-κB [2]
  miR-146a expression: significantly upregulated

## mmu-miR-30c (UGUAAACAUCCUACACUCUCAGC; chemistry not fully specified)
miRNAs in the vitreous
  AVE DCt (STZ): 2.37

## Cc1ccc(S(=O)(=O)/C=C/C#N)cc1 [Bay11-7082]
NF-κB [3]; [4]
  inhibition of thrombin-induced miR-146b upregulation: at least 33%
  thrombin-induced upregulation of miR-146a: completely blocked
NF-κB p65
  NF-κB activation (nuclear translocation of p65): failed to activate NF-κB
[1]; IL-1β 10 ng/ml
  IL-1β-induced decrease of TEER: prevented
NF-κB [2]; rat RECs, IL-1β 10 ng/ml, simultaneous Bay11-7082
  decrease of IL-1β-induced upregulation of miR-146a: ~81%
NF-κB [2]; rat RECs, TNF-α 10 ng/ml, simultaneous Bay11-7082
  TNF-α-induced upregulation of miR-146a: completely blocked

## TNF-α
NF-κB p65
  NF-κB activation (nuclear translocation of p65): activated NF-κb
NF-κB [2]
  miR-146a expression: significantly upregulated

## thrombin
NF-κB [3]; thrombin treatment
  upregulation of miR-146a: 122%
  upregulation of miR-146b: 92%
HRECs
  leukocyte adhesion: significantly increased
NF-κB activation; [5]
  induction of ICAM-1: ~17 fold
  induction of VCAM-1: ~95 fold
NF-κB activation; HRECs
  NF-κB downstream genes ICAM1, MCP1 and VCAM1: significantly upregulated
